Data on seven compounds can be found in patent US11414387B2, “Oxoacridinyl acetic acid derivatives and methods of use” (Stingthera, Inc., priority 2017, dated 2022).

By pIC50 is commonly meant the negative decadic logarithm of the IC50, by convention in mol/L. High values mean a small IC50, low ones a large IC50.

The structures appear in SMILES notation. pIC50: −log10 of the molar value.

Experiment [1] has as its target T1, hSTING-HAQ (Homo sapiens (Human), UniProt Q86WV6, G230A/H232R/R293Q). Briefly: Radiometric filtration binding competition assay, hSTING-HAQ.
Procedure: A radiometric filtration binding competition assay was performed to quantify the binding affinity of compounds of the present application for the human or mouse STING protein, or associated HAQ human isoform. […] The resulting dose response was fit by non-linear regression to determine an IC50 value, from which a Ki value for each compound was extrapolated.
The resulting complexes were then filtered, dried, and scintillation fluid was added and the remaining radio signal was measured to determine the degree of compound ligand inhibition. This assay format was optimized for both the WT and HAQ isoforms of the human protein and the mouse orthologue protein.
Probe Concentration: Minimum concentration that achieved max assay window • g. Assay Format: Scintillation Proximity Bead or Filtration Binding Plate • h. […] Assay incubation times for successive incubation steps
WT-hSWAT: WT_FBA_HIS-SUMO-hSWAT IC50 (μM) (“WT”=Wild-type); HAQ-hSWAT: HAQ_FBA_HIS-SUMO-hSWAT IC50 (μM) (“HAQ”=human HAQ allele of STING protein); and WT-mSWAT: MOUSE_FBA_HIS-SUMO-mnSWAT IC50 (μM) which is the mouse isoform of STING protein.
Experiment [2] concerns the target T1, hSTING-HAQ. Briefly: STING differential scanning fluorimetry (DSF) assay, HAQ human STING. The settings on record: HAQ human STING aa140-379, net shift in melting temperature.
Procedure: A STING DSF assay was performed to determine protein thermostability shift in response to small molecule ligand binding. A STING thermostability shift assay based on differential scanning fluorimetry was used to measure (1) the net shift in melting temperature (ΔTm)between the apo and ligand-bound states of the STING protein and (2) the concentration of the thermal denaturation transition (EC50) as a surrogate measure of binding affinity (K). […] Protein in assay buffer was transferred to a 384 well plate and incubated with the hydrophobic fluorescent dye SYBR Orange. A temperature ramp was applied to the plate and the resulting dye fluorescence was plotted as a function of temperature. The first derivative of this function (dF/dT) was then used to extrapolate the melting temperature of the protein at various concentrations of compound and determine the thermal denaturation profile of a protein/compound complex.
• 1. Protein construct (affinity tag removal vs SUMO-fusion construct) • 2. Protein concentration • 3. Dye concentration • 4. Buffer • 5. Thermal ramp velocity • 6. DMSO tolerance • 7. Compound titration parameters • 8. […] 5 μM purified Target STING Protein • 3. 8 μM Sypro Orange Dye • 4. Buffer: 100 mM NaCl, 30 mM HEPES, pH 7.5 • 5. Thermal Ramp: 0.5° C./min • 6. <1% DMSO • 7. 11 point, 2 fold dilution, duplicate, 300 μM high concentrations • 8.
The next experiment concerns the target mSTING (Mus musculus, UniProt Q3TBT3). In words: Radiometric filtration binding competition assay, mSTING.
In the next experiment the target is STING protein (Homo sapiens (Human), UniProt Q86WV6, H232R). Briefly: Cell based reporter assay of IRF activation (IRF-luciferase), THP1-dual-KI R232. The settings on record: read-out: THP1-dual-KI R232_IRF(Luciferase)_Activity Maximum measured (%). Background: Reporter assays use an easily measured gene product as a stand-in for the process of interest.
A further experiment addresses mSTING-R232 (Mus musculus, UniProt Q3TBT3). In words: STING differential scanning fluorimetry (DSF) assay, mouse STING. The conditions noted are these: net shift in melting temperature.
In another experiment the target is hSTING-CTD (Homo sapiens (Human), UniProt Q86WV6). In words: Human STING protein FP competition concentration response assay. It is filed as binding. The procedure, abridged:
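Fluorescence polarization competition: recombinant hSTING-CTD (10 uM final) with 30 nM fluorescein-labeled c-di-GMP probe and titrated compound (2-fold, 14 points; 3.35% DMSO) in PBS, 10-20 min at r.t. Fluorescence anisotropy read; IC50 from 4-parameter logistic fit.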

A further experiment concerns the target hSTING-WT (Homo sapiens (Human), UniProt Q86WV6, H232R). Briefly: Radiometric filtration binding competition assay, hSTING-WT.
A further experiment has as its target hSTING-R232 (Homo sapiens (Human), UniProt Q86WV6, H232R). Briefly: STING differential scanning fluorimetry (DSF) assay, WT human STING. The settings on record: WT (R232) human STING aa140-379, net shift in melting temperature. On the technique in general: In DSF a fluorescence change marks the thermal transition of the protein.

hSTING-WT, sequence (Q86WV6 140-379 H232R): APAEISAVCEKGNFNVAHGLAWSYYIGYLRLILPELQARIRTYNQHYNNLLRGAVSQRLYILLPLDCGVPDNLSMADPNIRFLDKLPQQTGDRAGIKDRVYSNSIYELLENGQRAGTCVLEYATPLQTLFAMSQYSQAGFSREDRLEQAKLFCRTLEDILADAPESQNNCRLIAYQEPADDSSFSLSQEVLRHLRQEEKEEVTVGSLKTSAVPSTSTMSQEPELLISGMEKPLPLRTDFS
hSTING-R232, sequence (Q86WV6 140-379 H232R): as above
STING protein, sequence (Q86WV6 whole entry H232R): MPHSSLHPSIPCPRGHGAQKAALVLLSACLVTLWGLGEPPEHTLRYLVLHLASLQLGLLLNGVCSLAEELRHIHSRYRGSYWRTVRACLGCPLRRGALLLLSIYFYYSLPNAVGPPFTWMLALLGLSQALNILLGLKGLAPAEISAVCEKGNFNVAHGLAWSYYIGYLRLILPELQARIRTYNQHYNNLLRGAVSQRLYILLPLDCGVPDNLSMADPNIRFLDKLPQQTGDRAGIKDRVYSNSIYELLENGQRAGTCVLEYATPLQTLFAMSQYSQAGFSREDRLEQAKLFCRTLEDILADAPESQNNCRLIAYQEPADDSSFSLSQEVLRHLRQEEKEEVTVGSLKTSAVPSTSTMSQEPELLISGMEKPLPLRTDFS
T1 sequence (Q86WV6 140-379 G230A/H232R/R293Q): as the sequence (Q86WV6 140-379 H232R) above, with G91A, R154Q counted along it
hSTING-CTD, sequence (Q86WV6 135-379): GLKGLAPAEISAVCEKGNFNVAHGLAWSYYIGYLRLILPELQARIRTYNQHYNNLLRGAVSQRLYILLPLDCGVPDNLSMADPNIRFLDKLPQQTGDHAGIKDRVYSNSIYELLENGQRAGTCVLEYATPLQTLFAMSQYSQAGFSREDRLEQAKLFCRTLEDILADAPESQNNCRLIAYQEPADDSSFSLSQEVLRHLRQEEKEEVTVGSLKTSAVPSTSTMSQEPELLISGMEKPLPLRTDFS

Turning to `CC(C)c1ccc2c(=O)c3ccc(Cl)c(Br)c3n(CC(=O)O)c2c1` [Compound 111], the pIC50 on hSTING-HAQ [1] is 3.52 to 4.00; at mSTING, 4.00 to 4.70; on hSTING-CTD it was > 4.00; on hSTING-WT it was 4.00 to 4.70. The “HAQ_DSF_hSWAT Tm Shift (° C.)” value on hSTING-HAQ [2] is recorded as “D (“D” > 7° C.)”. Also, the Emax at STING protein was > 50%. In addition, at mSTING-R232, the “MOUSE DSF_6xHIS-SUMO Tm Shift (° C.)” value is recorded as “C (“C” = 5-15° C.)”. For the same compound, the “WT_DSF_hSWAT Tm Shift (° C.)” value at hSTING-R232 is on record as “D (“D” > 7° C.)”.
Regarding `O=C(O)Cn1c2cc(C3CCCCC3)ccc2c(=O)c2ccc(Cl)c(Cl)c21` [Compound 115], the negative logarithm of the IC50 (pIC50) at hSTING-HAQ [1] was 3.52 to 4.00; on mSTING, > 4.70; at hSTING-CTD it was > 4.00; at hSTING-WT, 4.00 to 4.70. The “HAQ_DSF_hSWAT Tm Shift (° C.)” value on hSTING-HAQ [2] is “C (“C” = 2-7° C,)”. In addition, the Emax on STING protein is 25 to 50%. On mSTING-R232, the “MOUSE DSF_6xHIS-SUMO Tm Shift (° C.)” value is recorded as “D (“D” > 15° C.)”. In addition, the “WT_DSF_hSWAT Tm Shift (° C.)” value at hSTING-R232 was “C (“C” = 2-7° C,)”.
Consider `O=C(O)Cn1c2cc(C3CCCCC3)ccc2c(=O)c2ccc(Cl)c(Br)c21` [Compound 147], for which the negative-log IC50 (pIC50) was 4.00 to 4.70 on hSTING-HAQ [1], > 4.70 on mSTING and > 4.70 on hSTING-WT. Besides, on hSTING-HAQ [2], the “HAQ_DSF_hSWAT Tm Shift (° C.)” value was “D (“D” > 7° C.)”. Also, the Emax at STING protein is > 50%. The “MOUSE DSF_6xHIS-SUMO Tm Shift (° C.)” value on mSTING-R232 was “D (“D” > 15° C.)”. For the same compound, the “WT_DSF_hSWAT Tm Shift (° C.)” value at hSTING-R232 is on record as “D (“D” > 7° C.)”.
For `Cc1cccc(-c2ccc3c(=O)c4ccc(Cl)c(Cl)c4n(CC(=O)O)c3c2)c1` [Compound 151], the negative-log IC50 (pIC50) at hSTING-HAQ [1] was 4.00 to 4.70; at mSTING it was > 4.70; on hSTING-WT, 4.00 to 4.70. Further, at hSTING-HAQ [2], the “HAQ_DSF_hSWAT Tm Shift (° C.)” value was “C (“C” = 2-7° C,)”. Further, the Emax on STING protein is < 5%. Besides, the “MOUSE DSF_6xHIS-SUMO Tm Shift (° C.)” value on mSTING-R232 is recorded as “C (“C” = 5-15° C.)”. Moreover, at hSTING-R232, the “WT_DSF_hSWAT Tm Shift (° C.)” value is reported as “B (“B” = 0-2° C.)”.
On to `CC1(C)CC=C(c2ccc3c(=O)c4ccc(Cl)c(Cl)c4n(CC(=O)O)c3c2)CC1` [Compound 159], for which the pIC50 on hSTING-HAQ [1] is 4.00 to 4.70; at mSTING, > 4.70; on hSTING-WT, 4.00 to 4.70. In addition, the “HAQ_DSF_hSWAT Tm Shift (° C.)” value on hSTING-HAQ [2] is on record as “A (“A” < 0° C.)”. Further, at STING protein, the Emax was in the range of 5 to 25%. Besides, the “MOUSE DSF_6xHIS-SUMO Tm Shift (° C.)” value on mSTING-R232 is given as “C (“C” = 5-15° C.)”. Further, the “WT_DSF_hSWAT Tm Shift (° C.)” value at hSTING-R232 was “A (“A” < 0° C.)”.
On to `CC(C)(C)c1ccc2c(=O)c3ccc(Cl)c(Br)c3n(CC(=O)O)c2c1` [Compound 176], for which the pIC50 at hSTING-HAQ [1] is 4.00 to 4.70; at mSTING, > 4.70; at hSTING-WT it was 4.00 to 4.70. Also, the “HAQ_DSF_hSWAT Tm Shift (° C.)” value on hSTING-HAQ [2] is given as “D (“D” > 7° C.)”. The Emax on STING protein was > 50%. Besides, the “MOUSE DSF_6xHIS-SUMO Tm Shift (° C.)” value on mSTING-R232 is “D (“D” > 15° C.)”. The “WT_DSF_hSWAT Tm Shift (° C.)” value on hSTING-R232 was “D (“D” > 7° C.)”.
`COc1c(Cl)ccc2c(=O)c3ccc(Nc4ccccc4)cc3n(CC(=O)O)c12` [Compound 207]: the negative-log IC50 (pIC50) on hSTING-HAQ [1] is 4.00 to 4.70; at mSTING, > 4.70; on hSTING-WT it was > 4.70. In addition, the “HAQ_DSF_hSWAT Tm Shift (° C.)” value at hSTING-HAQ [2] was “D (“D” > 7° C.)”. In addition, the Emax at STING protein was > 50%. For the same compound, the “MOUSE DSF_6xHIS-SUMO Tm Shift (° C.)” value at mSTING-R232 is given as “D (“D” > 15° C.)”. For the same compound, the “WT_DSF_hSWAT Tm Shift (° C.)” value at hSTING-R232 is given as “D (“D” > 7° C.)”.
